Test: Human HepG2 cell viability assay in 384 well format
Type: toxicity, cell-based
Parameters: dose 125 nL, time 70.5 hour; concentration not given beside the values
Details: HepG2 cells, read-out: Inhibition

Row | SMILES | cytotoxicity at 70.5 h [%]
1 | Cc1ccccc1SC1CCN(C(=O)[C@H]2[C@@H]3CNC[C@@H]32)CC1 | -1.38
2 | Cn1cc(-c2c(C#N)c(N)nc3c2CCc2[nH]ccc2-3)cn1 | 17.1
3 | CCN(C)CC(C)Cn1cnc(-c2ccccc2)c1-c1cncn1CC (centres undefined) | -10.8
4 | O=C(Nc1cnc2n1CCCC2)c1cccc(NC(=O)C2CCCC2)c1 | -8.35
5 | CN(C)C(=O)c1cccnc1-c1ccc2c(c1)OCO2 | -11.3
6 | O=C1O[C@@H]2CN(c3ccc(Cl)cn3)C[C@@H]2N1CCc1ccc(F)cc1 | -8.87
7 | Cc1ccccc1CN(Cc1ccc(S(C)(=O)=O)cc1)CC(C)C | 6.09
8 | CCNc1ccnc(NCC2CNCCO2)n1 (centres undefined) | -3.23
9 | COCCn1ccnc1-c1[nH]cnc1C | 6.67
10 | CC(C)(C)c1ncc(S(C)(=O)=O)c(C2CCCNC2)n1 (centres undefined) | -6.75
11 | CC(c1cccnc1)N(C)Cc1cc(O)c2cc(F)ccc2n1 (centres undefined) | -6.6
12 | COc1cccc2ccc(CN3CCN(c4ccncc4)CC3)nc12 | -9.89
13 | CCCNc1ncc(-c2cc(C3CC3)nc(N)c2C#N)cn1 | -12.1
14 | CC1=C(C(=O)N2CCCC(Cn3cc(CO)nn3)C2)OCCO1 (centres undefined) | -2.23
15 | NCCc1n[nH]c(=O)n1-c1cccc(Cl)c1Cl | -3.82
16 | O=C(CCSc1ccc2c(c1)OCCO2)NCC1CCS(=O)(=O)C1 (centres undefined) | -3.43
17 | Cc1cc(C(=O)N2CCCC3(CN(C)C(=O)O3)C2)c2ccc(F)cc2n1 (centres undefined) | 16.1
18 | Cc1n[nH]c(CN2CCN(CC3CC3)[C@@H]3CS(=O)(=O)C[C@@H]32)n1 | 44.8
19 | COC[C@@H]1CCCN1C(=O)c1cc(-c2ccc(OC)cc2)n[nH]1 | -7.57
20 | COc1ccc(-c2noc(CN3CCN(c4cnccn4)CC3)n2)cc1 | -16.7
21 | CCn1ccnc1CN1CCC(=O)N(CC2CC2)C(C(C)C)C1 (centres undefined) | 31.2
22 | NC(=O)CN1CCCC(C(=O)N2CCC(Oc3ncccn3)CC2)C1 (centres undefined) | -2.67
23 | Cc1ccc(C(C(=O)NCCc2nc(C)cc(C)n2)N(C)C)cc1 (centres undefined) | -4.39
24 | CCC(Cn1ccc2[nH]c(=O)c(C#N)cc2c1=O)OC (centres undefined) | -6.98
25 | CCc1nnc(CN2CCc3[nH]c(-c4ccc(OC)cc4)nc3C2)o1 | -9.04
26 | COCC1CCN(S(=O)(=O)c2ccc(C(=O)NCC(F)F)cc2)C1 (centres undefined) | 9.26
27 | Cc1cc(N[C@H]2CCCC[C@@H]2O)n2nccc2n1 | 5.62

Row | SMILES | cytotoxicity at 70.5 h [%]
28 | O=C(c1cn(CCN2CCCCC2)nn1)N1CCCO1 | -6.13
29 | CC(C)C1CN(c2cccc(C#N)n2)CCCN1Cc1ccc(F)cc1 (centres undefined) | -15.7
30 | Cc1cccc(C)c1NC(=O)c1cccc(CN2CCCC2C)c1 (centres undefined) | 3.17
31 | COCCN(C)c1nc(-c2ccncc2)nc2c1CCN(C(C)=O)C2 | -7.41
32 | c1cnc(N2CCN(CCn3ccnc3-c3ccncc3)CC2)nc1 | 12.5
33 | CO[C@H]1CNC[C@@H]1NC(=O)CCc1nc(-c2ccccc2)no1 | -0.167
34 | CC/C=C(\C)CN1CCC(CNC(=O)c2ccnc(N)c2)C1 (centres undefined) | 15
35 | CC(C)(C)c1cc(CN2C[C@H]3CC[C@@H]2CN(Cc2cscn2)C3)n[nH]1 | 13.7
36 | CC(C)NC(=O)[C@@H]1C[C@H](N)CN1C(=O)C1(c2ccc(Cl)cc2)CCC1 | -9.78
37 | Cc1nc(C(=O)N2CCN(c3ncccn3)[C@@H]3CS(=O)(=O)C[C@@H]32)cs1 | -7.79
38 | Cc1nnc(-c2cccc(N3CCC(NC(C)CC(C)C)CC3)c2)s1 (centres undefined) | -4.36
39 | COc1ccc(C(C(=O)O)N(C)CCN2CCCC2)c(C)c1 (centres undefined) | 24
40 | CCCc1nc(C(=O)NCc2cccnc2-n2cncn2)cs1 | 7.67
41 | O=C(C1CCOc2ccccc2C1)N1Cc2cnn(CCO)c2C1 (centres undefined) | 9.23
42 | Cc1cc(CC(C)NC(=O)Cc2cc(F)ccc2C)[nH]n1 (centres undefined) | 3.68
43 | O=C(CCO)N1C[C@H]2CC[C@@H]1CN(C1Cc3ccccc3C1)C2 | -9.88
44 | O=C(Cc1ccc(O)c(F)c1)N1CCN(CC2CC2)[C@@H]2CS(=O)(=O)C[C@@H]21 | -6.03
45 | Cc1ccsc1C(CNC(=O)c1cc(=O)[nH]c(=O)[nH]1)N(C)C (centres undefined) | 17.7
46 | Cc1ccc(Sc2ccc(CN3CCC4(CC3)NCCNC4=O)o2)cc1 | 1.08
47 | CC(C)(C)CN1CCN(CC2CC2)C(CCO)C1 (centres undefined) | -0.19
48 | Cc1cc(CN(C)C(=O)C2CC(=O)N(Cc3cccnc3)C2)on1 (centres undefined) | -9.4
49 | O=C(O)[C@@H]1CN(Cc2cc3c(cc2Cl)OCO3)C[C@H]1C1CC1 | -1.73
50 | c1cc2c(cc1C[C@@H]1CC[C@H](CN3CCCOCC3)O1)OCO2 | -5.03
51 | CN(C)C[C@@H]1CN(Cc2ccccc2C#N)C[C@@H]1CO | 2.25
52 | COc1ccccc1OC1CN(C(=O)c2ccccc2C(C)=O)C1 | -19.5
53 | NC(=O)c1cncc(-n2ccc(-c3cnccn3)n2)c1 | -8.7
54 | CN1CC2(CCCN(Cc3ccccc3OCC(=O)O)C2)OC1=O (centres undefined) | -2.41

Row | SMILES | cytotoxicity at 70.5 h [%]
55 | CCN1CCN(Cc2nc(CCc3ccccc3)n[nH]2)CC1 | 29.9
56 | O=C([C@@H](O)Cc1ccccc1)N1CCCn2cncc2C1 | -7.92
57 | CCN1CCCC(C)(C(=O)NCCCc2nc(C)cs2)C1 (centres undefined) | -10.4
58 | CCc1cc(N[C@H]2CCC[C@H]2CO)n2nc(C)c(C)c2n1 | -2.92
59 | CC(NC(=O)c1coc(COc2cccc(F)c2)n1)c1nnc(N)s1 (centres undefined) | -10.7
60 | Cc1noc(-c2ccnc(Oc3ccccc3CN3CCCCC3)c2)n1 | -1.96
61 | COc1cccc(-c2noc(-c3ccc(NCCCN)nc3)n2)c1OC | 2.21
62 | Cc1[nH]c2c(F)cccc2c1CC(=O)NC1CCCCNC1=O (centres undefined) | 24.9
63 | O=C(CSc1ccncc1)N1CCC2(CC1)c1ccccc1CC2O (centres undefined) | -5.15
64 | Cn1c(CN2CCCCC2)nnc1C1CCCN(C(=O)CCC(N)=O)C1 (centres undefined) | -9
65 | O=C(O)c1cc(-c2ccncc2)cc(S(=O)(=O)N2CCCCCC2)c1 | -18.9
66 | CCc1cnc(NCCCN2CCC(O)CC2)nc1 | -1.08
67 | Cc1nc(-c2ncc(C(=O)NCCNc3ncccc3C)c(O)n2)cs1 | -2.82
68 | CC(CN1CCC(c2ccccc2)CC1)n1cnc2ccccc21 (centres undefined) | -18.3
69 | Cc1nn(C)c(C)c1CN(C(=O)c1cnc(O)cn1)C(C)C | -2.89
70 | CNC(=O)[C@@H]1C[C@H](N)CN1S(=O)(=O)c1cc(Cl)cc(Cl)c1O | -6.21
71 | c1csc(CN2CCCN(c3ncnc4[nH]ccc34)CC2)c1 | -13.6
72 | O=C(O)[C@@H]1CN(Cc2nc3ncccn3n2)C[C@H]1c1cccc(F)c1 | 26.1
73 | COc1ccccc1OCc1cc(C(=O)NC[C@@H]2CCCN2)n[nH]1 | -1.83
74 | CCc1nnc(N2C[C@@H](NC(C)=O)[C@H](c3ccc(C)o3)C2)s1 | 2.74
75 | OC1(CNCCSCc2ccccc2)CCCNC1 (centres undefined) | 18.4
76 | CC(C)=CCN1C[C@@H]2CN(C(=O)c3cnccc3C)C[C@]2(C(=O)O)C1 | -7.13
77 | CN(C)CCCC(=O)NC1CC(C)(C)Cc2nc(C(C)(C)C)ncc21 (centres undefined) | -17.7
78 | COc1ccc2c(c1OC)Cc1c-2nc(N)c(C#N)c1C1CCOC1 (centres undefined) | -19.2
79 | CCOCC(=O)N1CCc2c(ncnc2N2CCOCC2)C1 | -3.63
